Reference: ChEMBL document CHEMBL1127377, “2-Substitution of N6-benzyladenosine-5'-uronamides enhances selectivity for A3 adenosine receptors” (J Med Chem, 1994)

How the values were obtained:
Adenosine receptor A1 = target: T1, Adenosine receptor A1 (Rattus norvegicus, UniProt P25099)
T1 sequence (P25099 whole entry): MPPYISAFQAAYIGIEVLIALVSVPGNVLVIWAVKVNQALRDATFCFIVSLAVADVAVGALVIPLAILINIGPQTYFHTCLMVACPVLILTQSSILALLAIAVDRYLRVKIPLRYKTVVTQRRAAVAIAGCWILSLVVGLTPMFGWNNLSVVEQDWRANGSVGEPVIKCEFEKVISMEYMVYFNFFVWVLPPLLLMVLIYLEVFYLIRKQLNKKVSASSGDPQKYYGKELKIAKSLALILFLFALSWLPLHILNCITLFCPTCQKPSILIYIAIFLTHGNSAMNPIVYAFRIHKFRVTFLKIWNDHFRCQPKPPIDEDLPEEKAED
Description: Tested for the binding affinity of A1 receptor by displacing the [3H]-PIA in rat brain membranes

Adenosine receptor A2a = Adenosine receptor A2a (Rattus norvegicus, UniProt P30543)
Adenosine receptor A3 = target: T2, Adenosine receptor A3 (Rattus norvegicus, UniProt P28647); assay: biochemical
T2 sequence (P28647 whole entry): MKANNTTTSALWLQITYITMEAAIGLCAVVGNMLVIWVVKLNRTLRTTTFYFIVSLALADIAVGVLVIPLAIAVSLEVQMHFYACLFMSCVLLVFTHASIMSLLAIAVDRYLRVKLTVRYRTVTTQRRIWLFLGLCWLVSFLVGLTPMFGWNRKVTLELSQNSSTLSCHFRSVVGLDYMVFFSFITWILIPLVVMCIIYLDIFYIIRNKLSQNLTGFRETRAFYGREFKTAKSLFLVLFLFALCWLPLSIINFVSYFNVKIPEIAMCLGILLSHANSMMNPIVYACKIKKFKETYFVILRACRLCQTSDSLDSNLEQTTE
Description: Tested for the binding affinity of A3 receptor by displacing N6-[[125I]-4-amino-3-iodobenzyl]-adenosine-5''-N-methyluronamide from membranes of CHO cells transfected with rat A3-cDNA

Sequence of Adenosine receptor A2a (P30543 whole entry): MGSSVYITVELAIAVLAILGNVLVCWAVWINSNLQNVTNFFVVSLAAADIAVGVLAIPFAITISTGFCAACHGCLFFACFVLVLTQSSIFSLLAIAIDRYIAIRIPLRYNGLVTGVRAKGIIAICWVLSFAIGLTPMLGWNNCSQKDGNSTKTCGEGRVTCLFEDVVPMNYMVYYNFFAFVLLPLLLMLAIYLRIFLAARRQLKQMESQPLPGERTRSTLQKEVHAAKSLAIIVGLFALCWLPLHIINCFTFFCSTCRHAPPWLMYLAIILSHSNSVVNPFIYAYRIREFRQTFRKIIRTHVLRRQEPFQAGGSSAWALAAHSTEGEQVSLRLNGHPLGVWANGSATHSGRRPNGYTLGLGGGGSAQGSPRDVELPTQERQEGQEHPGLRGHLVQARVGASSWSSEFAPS

Ki (Adenosine receptor A1) [nM] | Ki (Adenosine receptor A2a) [nM] | Ki (Adenosine receptor A3) [nM] | Structure (SMILES)
14 | – | – | Nc1ccc(CCNc2ncnc3c2ncn3[C@@H]2O[C@H](CO)[C@@H](O)[C@H]2O)cc1
– | 197 | – | CNC(=O)[C@H]1O[C@@H](n2cnc3c(NCc4ccc(N)c(I)c4)ncnc32)[C@H](O)[C@@H]1O
2.1 | – | 15.5 | Nc1ccc(CCNc2ncnc3c2ncn3C2O[C@H](CO)[C@@H](O)[C@H]2O)cc1I (stereo not given in full)
– | 462 | – | OC[C@H]1O[C@@H](n2cnc3c(NC4CCCC4)ncnc32)[C@H](O)[C@@H]1O [N6-CYCLOPENTYLADENOSINE]
